Assay results from patent US20110071108A1, “Beta-Cyclodextrin Derivatives as Antibacterial Agents” (Pinnacle Pharmaceuticals, Inc., priority 2005, published 2011).

How the values were obtained:
[1] = system: Salmonella choleraesuis; assay: Bacterial panel testing, MIC by broth microdilution; type: cell-based; details: 20-24 hours growth
Summary of the method: (§1)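 Strains grown 2-4 h, 37° C, MH or BHI broth per strain; McFarland-standardized, diluted in media. Cpd 10 μg/ml in DMSO, 2-fold serial dilution cols 2-12. Rifampicin included. 20-24 h growth; clear wells scored.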

[2] = system: Pseudomonas aeruginosa; assay: as above; type: cell-based; details: 20-24 hours growth
Summary of the method: as §1

[3] = system: Lungs cancer cells A549; assay: Mammalian cytotoxicity
[4] = system: Eschericia coli; assay: Bacterial panel testing, MIC by broth microdilution; type: cell-based; details: 20-24 hours growth
Summary of the method: as §1

[5] = system: Bacillus atrophaeus; assay: as above; type: cell-based; details: 20-24 hours growth
Summary of the method: as §1

[6] = system: Staphylococcus aureus; assay: as above; type: cell-based; details: 20-24 hours growth
Summary of the method: as §1

[7] = system: Enterococcus faecium; assay: as above; type: cell-based; details: 20-24 hours growth
Summary of the method: as §1

| Compound | MIC SC [1] | MIC PA [2] | Mammalian Cytotoxicity IC50 [3] | MIC EC [4] | MIC BA [5] | MIC SA [6] | MIC EF [7] |
| --- | --- | --- | --- | --- | --- | --- | --- |
| OC1C2OC(CNC3CCCCC3)C(OC3OC(CNC4CCCCC4)C(OC4OC(CNC5CCCCC5)C(OC5OC(CNC6CCCCC6)C(OC6OC(CNC7CCCCC7)C(OC7OC(CNC8CCCCC8)C(OC8OC(CNC9CCCCC9)C(O2)C(O)C8O)C(O)C7O)C(O)C6O)C(O)C5O)C(O)C4O)C(O)C3O)C1O (stereo not drawn) | >200 µg/mL | >200 µg/mL | 373 µg/mL |  |  |  |  |
| C[C@@H](NCC1OC2OC3C(CN[C@H](C)c4ccccc4)OC(OC4C(CN[C@H](C)c5ccccc5)OC(OC5C(CN[C@H](C)c6ccccc6)OC(OC6C(CN[C@H](C)c7ccccc7)OC(OC7C(CN[C@H](C)c8ccccc8)OC(OC8C(CN[C@H](C)c9ccccc9)OC(OC1C(O)C2O)C(O)C8O)C(O)C7O)C(O)C6O)C(O)C5O)C(O)C4O)C(O)C3O)c1ccccc1 (stereo partly drawn) |  | >200 µg/mL | 105 µg/mL |  |  |  |  |
| O[C@@H]1[C@@H](O)[C@H]2O[C@H]3[C@H](O)[C@@H](O)[C@@H](O[C@H]4[C@H](O)[C@@H](O)[C@@H](O[C@H]5[C@H](O)[C@@H](O)[C@@H](O[C@H]6[C@H](O)[C@@H](O)[C@@H](O[C@H]7[C@H](O)[C@@H](O)[C@@H](O[C@H]8[C@H](O)[C@@H](O)[C@@H](O[C@@H]1[C@@H](CNCc1ccccc1)O2)O[C@@H]8CNCc1ccccc1)O[C@@H]7CNCc1ccccc1)O[C@@H]6CNCc1ccccc1)O[C@@H]5CNCc1ccccc1)O[C@@H]4CNCc1ccccc1)O[C@@H]3CNCc1ccccc1 |  | >200 µg/mL | 840 µg/mL |  |  |  |  |
| Cc1ccc(CNCC2OC3OC4C(CNCc5ccc(C)cc5)OC(OC5C(CNCc6ccc(C)cc6)OC(OC6C(CNCc7ccc(C)cc7)OC(OC7C(CNCc8ccc(C)cc8)OC(OC8C(CNCc9ccc(C)cc9)OC(OC9C(CNCc%10ccc(C)cc%10)OC(OC2C(O)C3O)C(O)C9O)C(O)C8O)C(O)C7O)C(O)C6O)C(O)C5O)C(O)C4O)cc1 (stereo not drawn) | >200 µg/mL | >200 µg/mL | 376 µg/mL |  |  |  |  |
| O[C@@H]1[C@@H](O)[C@H]2O[C@H]3[C@H](O)[C@@H](O)[C@@H](O[C@H]4[C@H](O)[C@@H](O)[C@@H](O[C@H]5[C@H](O)[C@@H](O)[C@@H](O[C@H]6[C@H](O)[C@@H](O)[C@@H](O[C@H]7[C@H](O)[C@@H](O)[C@@H](O[C@H]8[C@H](O)[C@@H](O)[C@@H](O[C@@H]1[C@@H](CNC1CCN(Cc9ccccc9)CC1)O2)O[C@@H]8CNC1CCN(Cc2ccccc2)CC1)O[C@@H]7CNC1CCN(Cc2ccccc2)CC1)O[C@@H]6CNC1CCN(Cc2ccccc2)CC1)O[C@@H]5CNC1CCN(Cc2ccccc2)CC1)O[C@@H]4CNC1CCN(Cc2ccccc2)CC1)O[C@@H]3CNC1CCN(Cc2ccccc2)CC1 |  | >200 µg/mL | 127 µg/mL |  |  |  |  |
| COc1ccccc1CNCC1OC2OC3C(CNCc4ccccc4OC)OC(OC4C(CNCc5ccccc5OC)OC(OC5C(CNCc6ccccc6OC)OC(OC6C(CNCc7ccccc7OC)OC(OC7C(CNCc8ccccc8OC)OC(OC8C(CNCc9ccccc9OC)OC(OC1C(O)C2O)C(O)C8O)C(O)C7O)C(O)C6O)C(O)C5O)C(O)C4O)C(O)C3O (stereo not drawn) |  | >200 µg/mL | 297 µg/mL |  |  |  |  |
| OC1C2OC(CNc3nc4ccccc4s3)C(OC3OC(CNc4nc5ccccc5s4)C(OC4OC(CNc5nc6ccccc6s5)C(OC5OC(CNc6nc7ccccc7s6)C(OC6OC(CNc7nc8ccccc8s7)C(OC7OC(CNc8nc9ccccc9s8)C(OC8OC(CNc9nc%10ccccc%10s9)C(O2)C(O)C8O)C(O)C7O)C(O)C6O)C(O)C5O)C(O)C4O)C(O)C3O)C1O (stereo not drawn) | >200 µg/mL | >200 µg/mL | 317 µg/mL | >200 µg/mL |  |  |  |
| OC1C2OC(CNC3CCNCC3)C(OC3OC(CNC4CCNCC4)C(OC4OC(CNC5CCNCC5)C(OC5OC(CNC6CCNCC6)C(OC6OC(CNC7CCNCC7)C(OC7OC(CNC8CCNCC8)C(OC8OC(CNC9CCNCC9)C(O2)C(O)C8O)C(O)C7O)C(O)C6O)C(O)C5O)C(O)C4O)C(O)C3O)C1O (stereo not drawn) | >200 µg/mL | >200 µg/mL | 378 µg/mL |  |  |  |  |
| O[C@@H]1[C@@H](O)[C@H]2O[C@H]3[C@H](O)[C@@H](O)[C@@H](O[C@H]4[C@H](O)[C@@H](O)[C@@H](O[C@H]5[C@H](O)[C@@H](O)[C@@H](O[C@H]6[C@H](O)[C@@H](O)[C@@H](O[C@H]7[C@H](O)[C@@H](O)[C@@H](O[C@H]8[C@H](O)[C@@H](O)[C@@H](O[C@@H]1[C@@H](CNCCc1ccccc1)O2)O[C@@H]8CNCCc1ccccc1)O[C@@H]7CNCCc1ccccc1)O[C@@H]6CNCCc1ccccc1)O[C@@H]5CNCCc1ccccc1)O[C@@H]4CNCCc1ccccc1)O[C@@H]3CNCCc1ccccc1 |  | >200 µg/mL | 43 µg/mL |  |  |  |  |
| COc1cccc(CNCC2OC3OC4C(CNCc5cccc(OC)c5)OC(OC5C(CNCc6cccc(OC)c6)OC(OC6C(CNCc7cccc(OC)c7)OC(OC7C(CNCc8cccc(OC)c8)OC(OC8C(CNCc9cccc(OC)c9)OC(OC9C(CNCc%10cccc(OC)c%10)OC(OC2C(O)C3O)C(O)C9O)C(O)C8O)C(O)C7O)C(O)C6O)C(O)C5O)C(O)C4O)c1 (stereo not drawn) |  | >200 µg/mL | 282 µg/mL |  |  |  |  |
| CCCCCCCCNC[C@H]1O[C@@H]2O[C@H]3[C@H](O)[C@@H](O)[C@@H](O[C@H]4[C@H](O)[C@@H](O)[C@@H](O[C@H]5[C@H](O)[C@@H](O)[C@@H](O[C@H]6[C@H](O)[C@@H](O)[C@@H](O[C@H]7[C@H](O)[C@@H](O)[C@@H](O[C@H]8[C@H](O)[C@@H](O)[C@@H](O[C@H]1[C@H](O)[C@H]2O)O[C@@H]8CNCCCCCCCC)O[C@@H]7CNCCCCCCCC)O[C@@H]6CNCCCCCCCC)O[C@@H]5CNCCCCCCCC)O[C@@H]4CNCCCCCCCC)O[C@@H]3CNCCCCCCCC |  | >200 µg/mL | 123 µg/mL |  |  |  |  |
| CCCCCCNC[C@H]1O[C@@H]2O[C@H]3[C@H](O)[C@@H](O)[C@@H](O[C@H]4[C@H](O)[C@@H](O)[C@@H](O[C@H]5[C@H](O)[C@@H](O)[C@@H](O[C@H]6[C@H](O)[C@@H](O)[C@@H](O[C@H]7[C@H](O)[C@@H](O)[C@@H](O[C@H]8[C@H](O)[C@@H](O)[C@@H](O[C@H]1[C@H](O)[C@H]2O)O[C@@H]8CNCCCCCC)O[C@@H]7CNCCCCCC)O[C@@H]6CNCCCCCC)O[C@@H]5CNCCCCCC)O[C@@H]4CNCCCCCC)O[C@@H]3CNCCCCCC |  | >200 µg/mL | 129 µg/mL |  |  |  |  |
| COc1ccc(CNCC2OC3OC4C(CNCc5ccc(OC)cc5)OC(OC5C(CNCc6ccc(OC)cc6)OC(OC6C(CNCc7ccc(OC)cc7)OC(OC7C(CNCc8ccc(OC)cc8)OC(OC8C(CNCc9ccc(OC)cc9)OC(OC9C(CNCc%10ccc(OC)cc%10)OC(OC2C(O)C3O)C(O)C9O)C(O)C8O)C(O)C7O)C(O)C6O)C(O)C5O)C(O)C4O)cc1 (stereo not drawn) | >200 µg/mL | >200 µg/mL | 297 µg/mL |  |  |  |  |
| O[C@@H]1[C@@H](O)[C@H]2O[C@H]3[C@H](O)[C@@H](O)[C@@H](O[C@H]4[C@H](O)[C@@H](O)[C@@H](O[C@H]5[C@H](O)[C@@H](O)[C@@H](O[C@H]6[C@H](O)[C@@H](O)[C@@H](O[C@H]7[C@H](O)[C@@H](O)[C@@H](O[C@H]8[C@H](O)[C@@H](O)[C@@H](O[C@@H]1[C@@H](CNc1ncccc1OCc1ccccc1)O2)O[C@@H]8CNc1ncccc1OCc1ccccc1)O[C@@H]7CNc1ncccc1OCc1ccccc1)O[C@@H]6CNc1ncccc1OCc1ccccc1)O[C@@H]5CNc1ncccc1OCc1ccccc1)O[C@@H]4CNc1ncccc1OCc1ccccc1)O[C@@H]3CNc1ncccc1OCc1ccccc1 | >200 µg/mL | >200 µg/mL | 398 µg/mL | >200 µg/mL |  |  |  |
| Cl.Cl.Cl.Cl.Cl.Cl.Cl.Cl.Cl.Cl.Cl.Cl.Cl.Cl.NC(Cc1cnc[nH]1)C(=O)NCC1OC2OC3C(CNC(=O)C(N)Cc4cnc[nH]4)OC(OC4C(CNC(=O)C(N)Cc5cnc[nH]5)OC(OC5C(CNC(=O)C(N)Cc6cnc[nH]6)OC(OC6C(CNC(=O)C(N)Cc7cnc[nH]7)OC(OC7C(CNC(=O)C(N)Cc8cnc[nH]8)OC(OC8C(CNC(=O)C(N)Cc9cnc[nH]9)OC(OC1C(O)C2O)C(O)C8O)C(O)C7O)C(O)C6O)C(O)C5O)C(O)C4O)C(O)C3O (stereo not drawn) | >200 µg/mL | >200 µg/mL |  | >200 µg/mL | >200 µg/mL | >200 µg/mL | >200 µg/mL |
| O=C(O)COC[C@H]1O[C@@H]2O[C@H]3[C@H](O)[C@@H](O)[C@@H](O[C@H]4[C@H](O)[C@@H](O)[C@@H](O[C@H]5[C@H](O)[C@@H](O)[C@@H](O[C@H]6[C@H](O)[C@@H](O)[C@@H](O[C@H]7[C@H](O)[C@@H](O)[C@@H](O[C@H]8[C@H](O)[C@@H](O)[C@@H](O[C@H]1[C@H](O)[C@H]2O)O[C@@H]8COCC(=O)O)O[C@@H]7COCC(=O)O)O[C@@H]6COCC(=O)O)O[C@@H]5COCC(=O)O)O[C@@H]4COCC(=O)O)O[C@@H]3COCC(=O)O | >200 µg/mL | >200 µg/mL |  | >200 µg/mL | >200 µg/mL | >200 µg/mL | >200 µg/mL |
| Cl.Cl.Cl.Cl.Cl.Cl.Cl.O=C(CN1CCOCC1)NCC1OC2OC3C(CNC(=O)CN4CCOCC4)OC(OC4C(CNC(=O)CN5CCOCC5)OC(OC5C(CNC(=O)CN6CCOCC6)OC(OC6C(CNC(=O)CN7CCOCC7)OC(OC7C(CNC(=O)CN8CCOCC8)OC(OC8C(CNC(=O)CN9CCOCC9)OC(OC1C(O)C2O)C(O)C8O)C(O)C7O)C(O)C6O)C(O)C5O)C(O)C4O)C(O)C3O (stereo not drawn) | >200 µg/mL | >200 µg/mL |  | >200 µg/mL | >200 µg/mL | >200 µg/mL | >200 µg/mL |
